As usually defined, the IC50 is the concentration needed to halve the response being measured.

Experiment [1] concerns ovariectomized rats. Description: Inhibitory effect on the increase of urinary hydroxyproline excretion by ovariectomy. The class given is in vivo, female SD strain rats. The following applies: 10 mg/kg orally once a day for two weeks, hydroxyproline/creatinine molar ratio in 24 hour urine. The method, then: The inhibitory effect of the compounds of the present application on bone resorption was also determined by their inhibitory effect on the excretion of urinary hydroxyproline which is elevated by ovariectomy of the animals tested, according to the report of Kalu et al. [Bone and Mineral., 14, 175 (1991)].
Test Example 2: Inhibitory effect on the increase of urinary hydroxyproline excretion by ovariectomy
12-weeks-old female SD strain rats (Japan Clea Co., Ltd.) were acclimated for 1 week during which they were given tap water and a standard diet (F2; Funabashi Farmas) ad libitum. The experiment was carried out using the rats weighing 270-310 g. After the animals were subjected to sham operation or bilateral ovariectomy, they were allowed free access to water passed through ion exchange resin instead of tap water, and were housed in individual cages. The test compound (10 mg/kg) was suspended in 0.3% Tween, and the obtained suspension was orally administered to the ovariectomized rats once a day for two weeks starting from the day following ovariectomy (0.5 ml/100 g body weight). 0.3% Tween was similarly administered to sham-operated rats and ovariectomized control rats. After the final administration, the rats were placed in individual metabolic cages and fasted during 24 hours, and urine was collected. The volume of the collected urine was measured and the urine was centrifuged at 3,000 rpm for 15 min at 4°C. The concentration of hydroxyproline in the supernatant was measured by the method of Ikeda et al. [Ann. Rep. Tokyo Metr. Res. Lab. P. H., 36, 277-282 (1985)] and the concentration of creatinine in the supernatant was measured with creatinine test WAKO (Wako Pure Chem.) The amount of urinary hydroxyproline excretion was expressed by the molar ratio of the amount of hydroxyproline to the amount of creatinine. The rate of inhibition on increase of the amount of urinary hydroxyproline excretion in ovariectomized rats treated with the test compound compared to that of the control group was calculated using the following equation. […]

The test system of experiment [2] is calvaria (PTH enhanced bone). Description: Inhibitory effect on bone absorption (calcium liberation from PTH enhanced cultured calvaria). Type of experiment: cell-based, newborn dd mouse. Particulars: mouse calvaria culture, PTH 1 x 10^-8M, 96 hours, calcium in the culture; test compound 3 x 10^-6M, 1 x 10^-5M, 3 x 10^-5M. The method, then: Test Example 1: Inhibitory effect on bone absorption
The calvaria was excised from a newborn dd mouse (5 to 6 days old) under sterile conditions. The calvaria was washed with a modified Dulbecco phosphate buffer physiological saline solution containing neither calcium nor magnesium (a product of Gibco Oriental), and divided into two parts along the center suture. A half of the calvaria was cultivated in a modified Dulbecco Eagle medium (1.5 ml) (a product of Gibco Oriental) containing 2.5% fetal calf serum and 15% equine serum which had been inactivated by heating at 56°C for 20 minutes. The test compound was dissolved in dimethyl sulfoxide and 10 µl of the resulting solution was added to the culture medium to give the final concentrations of 3 x 10^-6M, 1 x 10^-5M, and 3 x 10^-5M. PTH (parathyroid hormone) was dissolved in a 0.15 M saline solution (pH 3) and 3 µl of the resulting solution was added to the culture medium to give the final concentration of 1 x 10^-8M. The culturing was carried out under the condition of 95% air and 5% carbon dioxide and at a temperature of 37°C for 96 hours. At 48 hours after the start of the culturing, the culture medium was renewed and the test compound and PTH treated as defined above were added thereto. For examining the effect of the test compound on calcium liberation (bone absorption) from the PTH enhanced bone, a control group, a group using PTH (1 x 10^-8M), and a group using both the test compound (3 x 10^-6M, 1 x 10^-5M, 3 x 10^-5M) and PTH were prepared. The amount of the bone absorption was determined by measuring the amount of calcium accumulated in the culture as collected after 96 hours of culturing. The total calcium concentration in the culture was measured with Calcium C Test Wako. The inhibition rate was calculated using the following equation and the result was shown in terms of 50% inhibitory concentration (IC50). Inhibition of bone absorption from PTH enhanced bone Inhibition rate (%) = [(CP - CD )/(CP - C0 )] x 100 [formula] • C0 : The total calcium concentration in the culture containing neither the test compound nor PTH. • CP : The total calcium concentration in the culture treated with only PTH. • CD : The total calcium concentration in the culture treated with both the test compound and PTH.

`CCN(CC)S(=O)(=O)c1c(C(c2ccc(O)cc2)c2ccc(O)cc2)c2ccccc2n1CCN(C)C` [Compound 18, N,N-Diethyl-3-[bis(4-hydroxyphenyl)methyl]-1-(2-dimethylaminoethyl)indole-2-sulfonamide]: the “Inhibition rate of increase of the amount of urinary hydroxyproline excretion” value in experiment [1] stood at 22%. Moreover, the IC50 in experiment [2] turned out to be 13.3 µM.
Regarding `O=S(=O)(c1[nH]c2ccccc2c1C(c1ccc(O)cc1)c1ccc(O)cc1)N1CCN(c2ccccc2Cl)CC1` [Compound 14, 3-[Bis(4-hydroxyphenyl)methyl]-2-[4-(2-chlorophenyl)piperazinylsulfonyl]indole], the IC50 in experiment [2] was found to be 14.1 µM.
Consider `CN(C)CCn1c(S(=O)(=O)N2CCCCC2)c(C(c2ccccc2)c2ccccc2)c2ccccc21` [Compound 24, 1-(2-Dimethylaminoethyl)-3-(diphenylmethyl)-2-(piperidinosulfonyl)indole], for which the “Inhibition rate of increase of the amount of urinary hydroxyproline excretion” value in experiment [1] is on record as 100%. Also, the IC50 in experiment [2] stood at 13.7 µM.
In the case of `O=S(=O)(c1c(C(c2ccc(O)cc2)c2ccc(O)cc2)c2ccccc2n1CCN1CCOCC1)N1CCN(c2ccccc2Cl)CC1` [Compound 16, 3-[Bis(4-hydroxyphenyl)methyl]-2-[4-(2-chlorophenyl)piperazinylsulfonyl]-1-(2-morpholinoethyl)indole], in experiment [1], the “Inhibition rate of increase of the amount of urinary hydroxyproline excretion” value came to 32%.
For `CN(C)CCn1c(S(=O)(=O)N2CCCCC2)c(C(c2ccc(O)cc2)c2ccc(O)cc2)c2ccccc21` [Compound 17, 3-[Bis(4-hydroxyphenyl)methyl]-1-(2-dimethylaminoethyl)-2-(piperidinosulfonyl)indole], the IC50 in experiment [2] is 13.7 µM.

(Values after patent EP0782987A1, “INDOLE DERIVATIVES” (KYOWA HAKKO KOGYO CO., LTD., priority 1995, dated 1997).)
